# Data published in US20240158348A1, “HERBICIDAL CYCLIC AMIDES N-SUBSTITUTED WITH A HALOALKYLSULFONYLANILIDE GROUP” (FMC Corporation, priority 2021, published 2024).
# How the values were obtained:
# Format in all cases: in vivo
# [1] = tested on: goosegrass (Eleusine indica); test: Test C preemergence, goosegrass; details: 0 is no effect, 100 is complete control
# Text: (§1) Seeds of plant species selected from blackgrass (Alopecurus myosuroides), corn (Zea mays), foxtail, giant (giant foxtail, Setaria faberi), goosegrass (Eleusine indica), kochia (Bassia scoparia), oat, wild (wild oat, Avena fatua), pigweed, palmer (palmer amaranth, Amaranthus palmeri), ragweed (common ragweed, Ambrosia artemisiifolia), ryegrass, Italian (Italian ryegrass, Lolium multiflorum), soybean (Glycine max) and wheat (Triticum aestivum) were planted into a blend of loam soil and sand and treated preemergence with a directed soil spray using test chemicals formulated in a non-phytotoxic solvent mixture which included a surfactant.
# (§2) At the same time, plants selected from these crop and weed species and also galium (catchweed bedstraw, Galium aparine) and horseweed (Erigeron canadensis) were planted in pots containing the same blend of loam soil and sand and treated with postemergence applications of test chemicals formulated in the same manner. Plants ranged in height from 2 to 10 cm and were in the one- to two-leaf stage for the postemergence treatment. Treated plants and untreated controls were maintained in a greenhouse for 10 or 12 days, after which time all treated plants were compared to untreated controls and visually evaluated for injury. Plant response ratings, summarized in Table A, are based on a 0 to 100 scale where 0 is no effect and 100 is complete control. A dash (-) response means no test result.
# [2] = tested on: soybean (Glycine max); test: Test C postemergence, soybean; details: visual injury, 0 to 100 scale (0 no effect, 100 complete control)
# Text: as §1, §2
# [3] = tested on: pigweed, palmer (palmer amaranth, Amaranthus palmeri); test: Test C preemergence, palmer amaranth; details: 0 is no effect, 100 is complete control
# Text: as §1, §2
# [4] = tested on: wheat (Triticum aestivum); test: Test C postemergence, wheat; details: visual injury, 0 to 100 scale (0 no effect, 100 complete control)
# Text: as §1, §2
# [5] = tested on: barnyardgrass (Echinochloa crusgalli); test: Test D flooded paddy test, barnyardgrass; set-up: key: 0 = no effect, 100 = complete control; details: 250 g ai/ha, Flood; applied to paddy water at 2-leaf stage; visual rating after 13 days; scale 0 (no effect) to 100 (complete control)
# Procedure: (§3) Plant species in the flooded paddy test selected from barnyardgrass (Echinochloa crusgalli), ducksalad (Heteranthera limosa), rice (Oryza sativa), and sedge, umbrella (small-flower umbrella sedge, Cyperus difformis) were grown to the 2-leaf stage for testing. At time of treatment, test pots were flooded to 3 cm above the soil surface, treated by application of test compounds directly to the paddy water, and then maintained at that water depth for the duration of the test. Treated plants and controls were maintained in a greenhouse for 13 days, after which time all species were compared to controls and visually evaluated. Plant response ratings, summarized in Table B, are based on a scale of 0 to 100 where 0 is no effect and 100 is complete control. A dash (-) response means no test result.
# [6] = tested on: soybean (Glycine max); test: Test C preemergence, soybean; details: 0 is no effect, 100 is complete control
# Text: as §1, §2
# [7] = tested on: galium (catchweed bedstraw, Galium aparine); test: Test C postemergence, galium; details: visual injury, 0 to 100 scale (0 no effect, 100 complete control)
# Text: as §1, §2
# [8] = tested on: foxtail, giant (giant foxtail, Setaria faberi); test: Test C postemergence, giant foxtail; details: visual injury, 0 to 100 scale (0 no effect, 100 complete control)
# Text: as §1, §2
# [9] = tested on: ragweed (common ragweed, Ambrosia artemisiifolia); test: Test C postemergence, ragweed; details: visual injury, 0 to 100 scale (0 no effect, 100 complete control)
# Text: as §1, §2
# [10] = tested on: kochia (Bassia scoparia); test: Test C postemergence, kochia; details: visual injury, 0 to 100 scale (0 no effect, 100 complete control)
# Text: as §1, §2
# [11] = tested on: ryegrass, Italian (Italian ryegrass, Lolium multiflorum); test: Test C postemergence, Italian ryegrass; details: visual injury, 0 to 100 scale (0 no effect, 100 complete control)
# Text: as §1, §2
# [12] = tested on: oat, wild (wild oat, Avena fatua); test: Test C preemergence, wild oat; details: 0 is no effect, 100 is complete control
# Text: as §1, §2
# [13] = tested on: rice (Oryza sativa); test: Test D flooded paddy test, rice; set-up: key: 0 = no effect, 100 = complete control; details: 250 g ai/ha, Flood; applied to paddy water at 2-leaf stage; visual rating after 13 days; scale 0 (no effect) to 100 (complete control)
# Procedure: as §3
# [14] = tested on: goosegrass (Eleusine indica); test: Test C postemergence, goosegrass; details: visual injury, 0 to 100 scale (0 no effect, 100 complete control)
# Text: as §1, §2
# [15] = tested on: pigweed, palmer (palmer amaranth, Amaranthus palmeri); test: Test C postemergence, palmer amaranth; details: visual injury, 0 to 100 scale (0 no effect, 100 complete control)
# Text: as §1, §2
# [16] = tested on: corn (Zea mays); test: Test C preemergence, corn; details: 0 is no effect, 100 is complete control
# Text: as §1, §2
# [17] = tested on: ducksalad (Heteranthera limosa); test: Test D flooded paddy test, ducksalad; set-up: key: 0 = no effect, 100 = complete control; details: 250 g ai/ha, Flood; applied to paddy water at 2-leaf stage; visual rating after 13 days; scale 0 (no effect) to 100 (complete control)
# Procedure: as §3
# [18] = tested on: ryegrass, Italian (Italian ryegrass, Lolium multiflorum); test: Test C preemergence, Italian ryegrass; details: 0 is no effect, 100 is complete control
# Text: as §1, §2
# [19] = tested on: kochia (Bassia scoparia); test: Test C preemergence, kochia; details: 0 is no effect, 100 is complete control
# Text: as §1, §2
# [20] = tested on: foxtail, giant (giant foxtail, Setaria faberi); test: Test C preemergence, giant foxtail; details: 0 is no effect, 100 is complete control
# Text: as §1, §2
# [21] = tested on: wheat (Triticum aestivum); test: Test C preemergence, wheat; details: 0 is no effect, 100 is complete control
# Text: as §1, §2
# [22] = tested on: horseweed (Erigeron canadensis); test: Test C postemergence, horseweed; details: 125 g ai/ha Postemergence; visual injury, 0 to 100 scale (0 no effect, 100 complete control)
# Text: as §1, §2
# [23] = tested on: sedge, umbrella (small-flower umbrella sedge, Cyperus difformis); test: Test D flooded paddy test, umbrella sedge; set-up: key: 0 = no effect, 100 = complete control; details: 250 g ai/ha, Flood; applied to paddy water at 2-leaf stage; visual rating after 13 days; scale 0 (no effect) to 100 (complete control)
# Procedure: as §3
# [24] = tested on: ragweed (common ragweed, Ambrosia artemisiifolia); test: Test C preemergence, ragweed; details: 0 is no effect, 100 is complete control
# Text: as §1, §2
# [25] = tested on: blackgrass (Alopecurus myosuroides); test: Test C postemergence, blackgrass; details: visual injury, 0 to 100 scale (0 no effect, 100 complete control)
# Text: as §1, §2
# [26] = tested on: corn (Zea mays); test: Test C postemergence, corn; details: visual injury, 0 to 100 scale (0 no effect, 100 complete control)
# Text: as §1, §2
# [27] = tested on: oat, wild (wild oat, Avena fatua); test: Test C postemergence, wild oat; details: visual injury, 0 to 100 scale (0 no effect, 100 complete control)
# Text: as §1, §2
compound,measurement,setting,value
Cc1c(N2CCC(OC3CC3)C2=O)cc(N(COC(=O)C(C)(C)C)S(=O)(=O)C(F)(F)F)c(C)c1C (stereo not shown) [Compound 49],"Plant response rating (0 to 100 scale), Goosegrass",[1]; 31 g ai/ha Preemergence,60
same,"Plant response rating (0 to 100 scale), Goosegrass",[1]; 125 g ai/ha Preemergence,90
same,Soybean plant response rating,[2]; 31 g ai/ha Postemergence,60
same,Soybean plant response rating,[2]; 125 g ai/ha Postemergence,80
same,"Plant response rating (0 to 100 scale), Pigweed, Palmer",[3]; 31 g ai/ha Preemergence,30
same,"Plant response rating (0 to 100 scale), Pigweed, Palmer",[3]; 125 g ai/ha Preemergence,100
same,Wheat plant response rating,[4]; 31 g ai/ha Postemergence,70
same,Wheat plant response rating,[4]; 125 g ai/ha Postemergence,70
same,"Plant response rating, Barnyardgrass",[5],100
same,"Plant response rating (0 to 100 scale), Soybean",[6]; 31 g ai/ha Preemergence,0
same,"Plant response rating (0 to 100 scale), Soybean",[6]; 125 g ai/ha Preemergence,40
same,Galium plant response rating,[7]; 31 g ai/ha Postemergence,80
same,Galium plant response rating,[7]; 125 g ai/ha Postemergence,90
same,"Foxtail, Giant plant response rating",[8]; 31 g ai/ha Postemergence,60
same,"Foxtail, Giant plant response rating",[8]; 125 g ai/ha Postemergence,90
same,Ragweed plant response rating,[9]; 31 g ai/ha Postemergence,70
same,Ragweed plant response rating,[9]; 125 g ai/ha Postemergence,90
same,Kochia plant response rating,[10]; 31 g ai/ha Postemergence,40
same,Kochia plant response rating,[10]; 125 g ai/ha Postemergence,60
same,"Ryegrass, Italian plant response rating",[11]; 31 g ai/ha Postemergence,50
same,"Ryegrass, Italian plant response rating",[11]; 125 g ai/ha Postemergence,90
same,"Plant response rating (0 to 100 scale), Oat, Wild",[12]; 31 g ai/ha Preemergence,60
same,"Plant response rating (0 to 100 scale), Oat, Wild",[12]; 125 g ai/ha Preemergence,90
same,"Plant response rating, Rice",[13],40
same,Goosegrass plant response rating,[14]; 31 g ai/ha Postemergence,20
same,Goosegrass plant response rating,[14]; 125 g ai/ha Postemergence,80
same,"Pigweed, Palmer plant response rating",[15]; 31 g ai/ha Postemergence,10
same,"Pigweed, Palmer plant response rating",[15]; 125 g ai/ha Postemergence,50
same,"Plant response rating (0 to 100 scale), Corn",[16]; 31 g ai/ha Preemergence,0
same,"Plant response rating (0 to 100 scale), Corn",[16]; 125 g ai/ha Preemergence,50
same,"Plant response rating, Ducksalad",[17],95
same,"Plant response rating (0 to 100 scale), Ryegrass, Italian",[18]; 31 g ai/ha Preemergence,40
same,"Plant response rating (0 to 100 scale), Ryegrass, Italian",[18]; 125 g ai/ha Preemergence,100
same,"Plant response rating (0 to 100 scale), Kochia",[19]; 31 g ai/ha Preemergence,30
same,"Plant response rating (0 to 100 scale), Kochia",[19]; 125 g ai/ha Preemergence,70
same,"Plant response rating (0 to 100 scale), Foxtail, Giant",[20]; 31 g ai/ha Preemergence,20
same,"Plant response rating (0 to 100 scale), Foxtail, Giant",[20]; 125 g ai/ha Preemergence,90
same,"Plant response rating (0 to 100 scale), Wheat",[21]; 31 g ai/ha Preemergence,30
same,"Plant response rating (0 to 100 scale), Wheat",[21]; 125 g ai/ha Preemergence,90
same,Horseweed plant response rating,[22],100
same,"Plant response rating, Sedge, Umbrella",[23],90
same,"Plant response rating (0 to 100 scale), Ragweed",[24]; 31 g ai/ha Preemergence,100
same,"Plant response rating (0 to 100 scale), Ragweed",[24]; 125 g ai/ha Preemergence,100
same,Blackgrass plant response rating,[25]; 31 g ai/ha Postemergence,30
same,Blackgrass plant response rating,[25]; 125 g ai/ha Postemergence,60
same,Corn plant response rating,[26]; 31 g ai/ha Postemergence,50
same,Corn plant response rating,[26]; 125 g ai/ha Postemergence,100
same,"Oat, Wild plant response rating",[27]; 31 g ai/ha Postemergence,30
same,"Oat, Wild plant response rating",[27]; 125 g ai/ha Postemergence,70
